Test results published in patent US20050003371A1, “Modified nucleotides and methods of labeling nucleic acids” (Stratagene, priority 2002, published 2005).
Entries after “also recorded” stand apart in the source; their conditions may differ.

Tests used:
T7 DNA polymerase = T7 DNA polymerase (Escherichia phage T7, UniProt P00581); settings: Procedure 2; for incorporation into DNA by T7 DNA polymerase in primer extension: template with maximum four dTTP/dUTP sites
Description: (§1) Aliquots containing 10 ng of the kinased 12-mer described in procedure 1 were combined with 40 ng of an 18-mer oligonucleotide (5′-[…]-3′; SEQ ID NO: 2) in 8 μL of T-7 buffer (20 mM MgCl2, 50 mM NaCl, 40 mM Tris, pH 7.5) or Klenow buffer (5 mM MgCl2, 4 mM DTT, 35 mM Tris, pH 7.5). To each reaction was added 1 μL of a solution containing 100 μM each of dATP and fluorescein 12-dUTP. The reaction contents were heated to 95° C. for 2 minutes and allowed to cool to room temperature. Five units (1 μL) of the appropriate polymerase were added and the reaction mixtures were incubated at 37° C. for 10 minutes. Control reactions were run which contained no polymerase. Polymerase activity was terminated by addition of 3 μL of 1M EDTA and the extension products were separated by electrophoresis using a 20% acrylamide gel and the results visualized by autoradiography. A measurement of the degree of polymerase-catalyzed primer extension obtained in the presence of modified nucleotide analogs according to the invention can be determined by substituting the modified nucleotide (1 μL of 100 μM) for fluorescein 12-dUTP in procedure 2.

[1] = target: T1, terminal deoxynucleotide transferase (TdT) (Bos taurus, UniProt P06526); experiment: Tailing / 3'-end labeling of a 12-mer oligonucleotide with terminal transferase (Procedure 1); type: biochemical; settings: for number of contiguous modified bases added to the 3' terminus: TdT-catalyzed end labeling
T1 construct: purchased Stratagene (La Jolla, Calif.)
T1 sequence (P06526 whole entry): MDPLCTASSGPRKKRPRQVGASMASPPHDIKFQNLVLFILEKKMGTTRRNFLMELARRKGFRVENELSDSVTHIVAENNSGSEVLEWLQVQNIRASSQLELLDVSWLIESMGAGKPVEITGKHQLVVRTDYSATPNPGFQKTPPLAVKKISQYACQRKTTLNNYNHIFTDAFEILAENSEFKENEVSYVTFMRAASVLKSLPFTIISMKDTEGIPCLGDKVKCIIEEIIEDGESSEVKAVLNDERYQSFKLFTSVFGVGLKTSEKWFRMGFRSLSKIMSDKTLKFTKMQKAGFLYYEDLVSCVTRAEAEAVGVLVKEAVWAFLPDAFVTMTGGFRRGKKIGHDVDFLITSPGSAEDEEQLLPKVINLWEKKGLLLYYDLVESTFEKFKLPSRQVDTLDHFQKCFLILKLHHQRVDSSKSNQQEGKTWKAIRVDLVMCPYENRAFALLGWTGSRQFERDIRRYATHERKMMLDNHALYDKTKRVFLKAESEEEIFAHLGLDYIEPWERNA
Description: A 12-mer oligonucleotide (5′-[…]-3′; SEQ ID NO: 1) was 5′ labeled with ^32P ATP and T4 Polynucleotide Kinase according to established methods (Roychoudhury and Wu, 1980; Sambrook, Fritch, and Maniatis, 1989). Aliquots of the mixture containing 10 ng of kinased oligo were combined with 100 pmol of fluorescein 12-dUTP and 5 units of terminal deoxynucleotide transferase (TdT) in 100 mM potassium cacodylate, 2 mM CoCl2, pH 7.2 (final volume of 10 μL). […] The reactions were quenched by the addition of loading dye and 4 μL aliquots were loaded onto a sequencing gel (14″×17″, poured with 20% acrylamide/7M urea/1×TBE), electrophoresed for 3 hours at 55 watts/[…] and exposed to X-ray film.

Taq DNA polymerase = target: T2, Taq DNA polymerase (Thermus aquaticus, UniProt P19821); experiment: Polymerase primer extension assay, 12-mer primer/18-mer template (Procedure 2); type: biochemical; settings: template with maximum four dTTP/dUTP sites
T2 construct: purchased Stratagene (La Jolla, Calif.)
T2 sequence (P19821 whole entry): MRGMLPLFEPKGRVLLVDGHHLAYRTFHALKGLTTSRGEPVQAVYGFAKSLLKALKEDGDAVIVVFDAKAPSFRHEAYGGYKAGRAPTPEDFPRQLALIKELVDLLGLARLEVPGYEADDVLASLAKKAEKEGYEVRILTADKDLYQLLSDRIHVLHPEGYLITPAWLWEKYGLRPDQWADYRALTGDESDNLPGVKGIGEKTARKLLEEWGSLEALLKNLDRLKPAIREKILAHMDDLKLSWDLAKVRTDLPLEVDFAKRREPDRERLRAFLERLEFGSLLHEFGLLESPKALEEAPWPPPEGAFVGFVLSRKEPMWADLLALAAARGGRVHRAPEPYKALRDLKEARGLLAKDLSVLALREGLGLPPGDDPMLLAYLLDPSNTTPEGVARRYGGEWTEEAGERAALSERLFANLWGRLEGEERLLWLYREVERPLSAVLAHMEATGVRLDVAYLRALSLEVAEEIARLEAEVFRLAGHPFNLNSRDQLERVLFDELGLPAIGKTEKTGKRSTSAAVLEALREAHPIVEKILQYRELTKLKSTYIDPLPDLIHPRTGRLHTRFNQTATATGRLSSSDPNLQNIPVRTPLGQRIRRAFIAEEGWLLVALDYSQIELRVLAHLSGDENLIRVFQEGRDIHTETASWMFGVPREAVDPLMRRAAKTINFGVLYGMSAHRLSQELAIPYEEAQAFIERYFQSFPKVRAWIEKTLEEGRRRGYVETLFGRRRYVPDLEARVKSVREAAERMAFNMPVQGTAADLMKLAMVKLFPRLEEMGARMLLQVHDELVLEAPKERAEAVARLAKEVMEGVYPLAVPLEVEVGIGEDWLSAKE
Description: as §1

[2] = tested on: exonuclease free Klenow polymerase; settings: Procedure 2, results not shown
Description: as §1

Klenow polymerase = target: T3, Klenow polymerase (Escherichia coli, UniProt P00582); experiment: Polymerase primer extension assay (Procedure 2); type: biochemical, E. coli; settings: Procedure 2, results not shown
T3 construct: Incorporation results using SAc-dUTP and the Klenow fragment of DNA polymerase I following Procedure 3
T3 sequence (P00582 324-928): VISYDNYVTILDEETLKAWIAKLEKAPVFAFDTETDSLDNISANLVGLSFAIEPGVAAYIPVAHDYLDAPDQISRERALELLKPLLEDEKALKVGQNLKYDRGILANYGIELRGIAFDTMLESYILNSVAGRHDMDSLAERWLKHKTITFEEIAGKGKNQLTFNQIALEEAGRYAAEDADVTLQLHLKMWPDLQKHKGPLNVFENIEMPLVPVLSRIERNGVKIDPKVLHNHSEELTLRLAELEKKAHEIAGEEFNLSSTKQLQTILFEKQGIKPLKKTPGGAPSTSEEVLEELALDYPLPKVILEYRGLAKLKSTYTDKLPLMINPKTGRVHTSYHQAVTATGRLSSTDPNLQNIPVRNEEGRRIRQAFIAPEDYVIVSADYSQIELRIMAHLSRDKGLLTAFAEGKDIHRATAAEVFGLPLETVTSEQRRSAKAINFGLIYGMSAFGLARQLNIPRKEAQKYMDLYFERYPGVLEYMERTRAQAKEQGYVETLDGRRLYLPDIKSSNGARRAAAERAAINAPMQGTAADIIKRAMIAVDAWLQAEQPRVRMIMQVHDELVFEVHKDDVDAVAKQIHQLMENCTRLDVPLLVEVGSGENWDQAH
Description: as §1

Chain of T7 DNA polymerase (P00581 whole entry): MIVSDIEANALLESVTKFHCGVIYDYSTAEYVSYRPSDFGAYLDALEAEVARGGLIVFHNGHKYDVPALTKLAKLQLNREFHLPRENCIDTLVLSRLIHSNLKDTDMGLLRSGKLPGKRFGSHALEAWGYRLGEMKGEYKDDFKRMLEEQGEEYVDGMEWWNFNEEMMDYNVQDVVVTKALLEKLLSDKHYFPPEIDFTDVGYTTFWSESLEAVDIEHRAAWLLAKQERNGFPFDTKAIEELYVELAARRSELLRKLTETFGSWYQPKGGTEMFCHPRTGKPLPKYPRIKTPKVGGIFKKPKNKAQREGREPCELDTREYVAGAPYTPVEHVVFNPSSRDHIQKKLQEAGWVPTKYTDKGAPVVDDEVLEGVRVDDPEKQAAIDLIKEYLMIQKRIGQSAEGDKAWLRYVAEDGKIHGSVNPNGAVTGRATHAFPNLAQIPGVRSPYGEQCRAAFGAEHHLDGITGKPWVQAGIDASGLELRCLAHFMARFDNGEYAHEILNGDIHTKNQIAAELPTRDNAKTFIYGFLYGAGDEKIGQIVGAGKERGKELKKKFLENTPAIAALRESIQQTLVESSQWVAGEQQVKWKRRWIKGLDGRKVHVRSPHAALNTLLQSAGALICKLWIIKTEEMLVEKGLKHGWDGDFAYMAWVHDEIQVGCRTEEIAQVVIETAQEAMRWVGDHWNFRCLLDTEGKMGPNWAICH
Chain of T7 DNA polymerase (P0AA25 2-109, further chain): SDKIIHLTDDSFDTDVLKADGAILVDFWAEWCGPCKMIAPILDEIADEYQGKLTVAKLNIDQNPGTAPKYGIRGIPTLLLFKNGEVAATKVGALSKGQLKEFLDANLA

Substance	substrate efficiency with T7 polymerase relative to Taq polymerase (T7 DNA polymerase; smaller fragments observed in T7 reaction)	incorporation into DNA by T7 DNA polymerase in primer extension (T7 DNA polymerase)	substrate for TdT in oligonucleotide tailing / 3'-end labeling ([1]; Procedure 1, 20% denaturing PAGE, autoradiography)	number of contiguous modified bases added to the 3' terminus [1]	incorporation into DNA by Taq DNA polymerase in primer extension (Taq DNA polymerase)	accepted as substrate by exonuclease free Klenow polymerase in primer extension [2]	accepted as substrate by Klenow polymerase in primer extension (Klenow polymerase)
pyridine dithiopropanoate-dUTP [PDP-dUTP]	reduced substrate efficiency with T7 polymerase compared to Taq polymerase	incorporated into DNA	substrate for TdT	up to 10 bases	incorporated into DNA; also recorded: incorporated at several sites		
maleimido-methylcyclohexane-dUTP [MCC-dUTP]		essentially the same degree of incorporation as PDP-dUTP		up to 5 bases	essentially the same degree of incorporation as PDP-dUTP	accepted as a substrate	accepted as a substrate
